Measured values reported in patent US9943537B2, “Antitumor agent and antitumor effect enhancer” (TAIHO PHARMACEUTICAL CO., LTD., priority 2013, dated 2018).

Legend:
[1] = Body weight change of KM20C-bearing nude mice (toxicity); assay type: in vivo, mouse
Method: (§1) A human colon cancer cell line (KM20C) was transplanted onto the right chest of a five to six week-old BALB/cA Jcl-nu mouse. The length (mm) and the breadth (mm) of the tumor after the tumor transplantation were measured, and the tumor volume (TV) was calculated. Then, the mouse was allocated into each group such that the average TV in each group was equal, and the day when the grouping (n=6 to 7) was implemented was assumed to be Day 0.
(§2) The administration dose of the drug was 10 mL/kg, and the FTD/TPI combination drug (a mixture of FTD and TPI at a molar ratio of 1:0.5) was prepared to be 150 mg/kg/day as the dose of FTD.
As an index of the antitumor effect, the TV in each group was calculated, and the relative tumor volume (RTV) for Day 0 was obtained from the equation below and plotted. […] In addition, the weight loss as the toxicity was evaluated. TV(mm^3)=(length×breadth^2)/2 RTV=(TV on evaluation day)/(TV on Day 0)

[2] = test system: human colon cancer cell line (KM20C); test: KM20C xenograft in nude mice, relative tumor volume; FTD/TPI oral Days 1 to 14, bevacizumab into abdominal cavity twice a week for two weeks; assay type: in vivo
Method: as §1, §2
(§3) As an index of the antitumor effect, the TV in each group was calculated, and the relative tumor volume (RTV) for Day 0 was obtained from the equation below and plotted. The chronological changes of RTV were compared among no treatment group (control), an FTD/TPI combination drug-treated group, a bevacizumab-treated group, and a FTD/TPI combination drug and bevacizumab combination-treated group. In addition, the weight loss as the toxicity was evaluated. TV(mm^3)=(length×breadth^2)/2 RTV=(TV on evaluation day)/(TV on Day 0)

[3] = test system: human breast cancer cell line (MC-2); test: MC-2 xenograft in nude mice, relative tumor volume and days till RTV reached 2; FTD/TPI and bevacizumab; assay type: in vivo
Method: as §1, §3
(§4) Next, a test was performed in the same manner using a human breast cancer cell line (MC-2).
With respect to the time period during which the tumor volume doubled from Day 0 (namely, RTV becomes 2), the results of the combination-treated group were predicted from the single agent-treated group of FIGS. 5 and 6. The “length of days till RTV actually reached 2” was calculated under the assumption that RTV on the measurement day when RTV firstly exceeded 2 changes according to a linear function from RTV on the measurement day immediately before the day.

[4] = Body weight change of MC-2-bearing nude mice (toxicity); assay type: in vivo, mouse; details: MC-2, Day 15, dose 1.5 mg/kg/day
Method: as §1, §3, §4

[5] = Body weight change of Co-3-bearing nude mice, panitumumab study (toxicity); assay type: in vivo, mouse
Method: as §1, with “(Co-3)” for “(KM20C)”, “(n=6)” for “(n=6 to 7)”
(§5) The administration dose of the drug was 10 mL/kg, and the FTD/TPI combination drug (a mixture of FTD and TPI at the molar ratio of 1:0.5) was prepared to be 150 mg/kg/day as the dose of FTD. Panitumumab (Vectibix (registered trademark) injection, Amgen Inc.) was prepared to be 0.30, 0.89, 2.7 and 8 mg/kg/day. The FTD/TPI combination drug was orally administered on Days 1 to 14 every day, and panitumumab was administered into the abdominal cavity for two weeks at a frequency of twice a week from Day 1. To the combination-treated group, the FTD/TPI combination drug and panitumumab were administered in the same doses and the same administration schedules as those of the single agent-treated group.
As an index of the antitumor effect, TV on Days 5, 8, 12 and 15 was calculated in each group, and the relative tumor volume (RTV) for Day 0 was obtained according to the formula of Example 1 and plotted. The chronological changes of RTV were compared of no treatment group (control), the FTD/TPI combination drug-treated group, the panitumumab-treated group and the combination FTD/TPI combination drug and panitumumab treated group. In addition, the weight loss as the toxicity was evaluated.

[6] = test system: human colon cancer cell line (Co-3); test: Co-3 xenograft in nude mice, relative tumor volume; FTD/TPI oral Days 1 to 14, panitumumab into abdominal cavity twice a week for two weeks; assay type: in vivo
Method: as §1, with “(Co-3)” for “(KM20C)”, “(n=6)” for “(n=6 to 7)”
as §5
[…] The chronological changes of RTV were compared of no treatment group (control), the FTD/TPI combination drug-treated group, the panitumumab-treated group and the combination FTD/TPI combination drug and panitumumab treated group. In addition, the weight loss as the toxicity was evaluated.

[7] = MC-2, Day 15, dose 1.5 mg/kg/day
[8] = Co-3, Day 29, dose 0.30 mg/kg/day
[9] = Co-3, Day 29, dose 0.89 mg/kg/day
[10] = Co-3, Day 29, dose 2.7 mg/kg/day

## Bevacizumab: anti-VEGF humanized monoclonal antibody (Avastin injection, Chugai Pharmaceutical Co., Ltd.)
[1]; Day 29, dose 0.20 mg/kg/day
  Body weight change (%, mean ± SD): 9.7 ± 5.1%
[1]; Day 29, dose 0.55 mg/kg/day
  Body weight change (%, mean ± SD): 3.2 ± 6.0%
[1]; Day 29, dose 1.7 mg/kg/day
  Body weight change (%, mean ± SD): 5.2 ± 6.7%
[2]; Day 29, dose 0.20 mg/kg/day
  IR (%) tumor growth inhibition rate: 34.3%
  RTV (mean ± SD): 8.93 ± 2.79
[2]; Day 29, dose 0.55 mg/kg/day
  IR (%) tumor growth inhibition rate: 28.5%
  RTV (mean ± SD): 9.71 ± 4.99
[2]; Day 29, dose 1.7 mg/kg/day
  IR (%) tumor growth inhibition rate: 39.7%
  RTV (mean ± SD): 8.19 ± 2.29
[2]; Day 29, dose 5 mg/kg/day
  IR (%) tumor growth inhibition rate: 38.6%
  RTV (mean ± SD): 8.34 ± 1.82
[3]; [7]
  IR (%) tumor growth inhibition rate: 41.1%
  RTV (mean ± SD): 3.06 ± 0.88
[3]; MC-2, single agent, bevacizumab 1.5 mg/kg/day
  Length of Days (day) till RTV actually reached 2: 7.71 days
[4]
  Body weight change (%, mean ± SD): 7.7 ± 3.7%

## Panitumumab: anti-EGFR human-type fully monoclonal antibody (Vectibix injection, Amgen Inc.)
[5]; [8]
  Body weight change (%, mean ± SD): −11.3 ± 5.3%
[5]; [9]
  Body weight change (%, mean ± SD): −6.7 ± 4.3%
[5]; [10]
  Body weight change (%, mean ± SD): −1.2 ± 3.1%
[5]; Co-3, Day 29, dose 8 mg/kg/day
  Body weight change (%, mean ± SD): −4.5 ± 4.5%
[6]; [8]
  IR (%) tumor growth inhibition rate: 23.0%
  RTV (mean ± SD): 18.15 ± 6.79
[6]; [9]
  IR (%) tumor growth inhibition rate: 35.9%
  RTV (mean ± SD): 15.10 ± 7.51
[6]; [10]
  IR (%) tumor growth inhibition rate: 46.1%
  RTV (mean ± SD): 12.71 ± 4.37
[6]; Co-3, Day 29, dose 8 mg/kg/day
  IR (%) tumor growth inhibition rate: 45.0%
  RTV (mean ± SD): 12.97 ± 2.33
